Target: T1, VraRC (C-terminal DNA-binding domain of response regulator VraR) (Staphylococcus aureus, UniProt Q7A4R9)
T1 construct: residues 138-209), C-terminal His-tag
Experiment: LSPR (VraRC immobilized on NTA chip, […] fit); supported by 1H-15N HSQC NMR titration and FP inhibition of DNA binding (IC50 […])

T1 sequence (Q7A4R9 138-209): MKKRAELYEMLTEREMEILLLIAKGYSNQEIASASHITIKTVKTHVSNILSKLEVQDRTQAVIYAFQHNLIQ

TST1N-224
Kd: 23.4 ± 1.2 µM
